From US8178677B2, “Hydroxyalkyl substituted imidazoquinolines” (3M Innovative Properties Company, priority 2005, dated 2012)
Structures can show the parent of a compound that is named as a salt. Where two headings read alike, the source gives them in different places.

Experiments:
[1] = test system: interferon (α) (IFN-α) induction in human peripheral blood mononuclear cells (PBMC); test: Cytokine induction in human cells (PBMC): IFN-α secreted into culture media, ELISA; assay type: cell-based; conditions: read-out: Minimum Effective Concentration (μM) IFN
From the text: (§1) Cytokine Induction in Human Cells
(§2) An in vitro human blood cell system is used to assess cytokine induction. Activity is based on the measurement of interferon (α) and tumor necrosis factor (α) (IFN-α and TNF-α, respectively) secreted into culture media as described by Testerman et. al. in “Cytokine Induction by the Immunomodulators Imiquimod and S-27609”, Journal of Leukocyte Biology, 58, 365-372 (September, 1995).
(§3) Blood Cell Preparation for Culture
(§4) Whole blood from healthy human donors is collected by venipuncture into vacutainer tubes or syringes containing EDTA. Peripheral blood mononuclear cells (PBMC) are separated from whole blood by density gradient centrifugation using HISTOPAQUE-1077 (Sigma, St. Louis, Mo.) or Ficoll-Paque Plus (Amersham Biosciences Piscataway, N.J.). Blood is diluted 1:1 with Dulbecco's Phosphate Buffered Saline (DPBS) or Hank's Balanced Salts Solution (HBSS). Alternately, whole blood is placed in Accuspin (Sigma) or LeucoSep (Greiner Bio-One, Inc., Longwood, Fla.) centrifuge frit tubes containing density gradient medium. The PBMC layer is collected and washed twice with DPBS or HBSS and re-suspended at 4×10^6 cells/mL in RPMI complete. The PBMC suspension is added to 96 well flat bottom sterile tissue culture plates containing an equal volume of RPMI complete media containing test compound.
(§5) The compounds are solubilized in dimethyl sulfoxide (DMSO). The DMSO concentration should not exceed a final concentration of 1% for addition to the culture wells. The compounds are generally tested at concentrations ranging from 30-0.014 μM. Controls include cell samples with media only, cell samples with DMSO only (no compound), and cell samples with reference compound.
(§6) The solution of test compound is added at 60 μM to the first well containing RPMI complete and serial 3 fold dilutions are made in the wells. The PBMC suspension is then added to the wells in an equal volume, bringing the test compound concentrations to the desired range (usually 30-0.014 μM). The final concentration of PBMC suspension is 2×10^6 cells/mL. The plates are covered with sterile plastic lids, mixed gently and then incubated for 18 to 24 hours at 37° C. in a 5% carbon dioxide atmosphere.
(§7) Following incubation the plates are centrifuged for 10 minutes at 1000 rpm (approximately 200×g) at 4° C. The cell-free culture supernatant is removed and transferred to sterile polypropylene tubes. Samples are maintained at −30 to −70° C. until analysis. The samples are analyzed for IFN-α by ELISA and for TNF-α by IGEN/BioVeris Assay.
(§8) Interferon (α) and Tumor Necrosis Factor (α) Analysis
IFN-α concentration is determined with a human multi-subtype calorimetric sandwich ELISA (Catalog Number 41105) from PBL Biomedical Laboratories, Piscataway, N.J. Results are expressed in pg/mL.
(§9) In total, the data output of the assay consists of concentration values of TNF-α and IFN-α (y-axis) as a function of compound concentration (x-axis).
Analysis of the data has two steps. First, the greater of the mean DMSO (DMSO control wells) or the experimental background (usually 20 pg/mL for IFN-α and 40 pg/mL for TNF-α) is subtracted from each reading. If any negative values result from background subtraction, the reading is reported as “*”, and is noted as not reliably detectable. In subsequent calculations and statistics, “*”, is treated as a zero. Second, all background subtracted values are multiplied by a single adjustment ratio to decrease experiment to experiment variability. The adjustment ratio is the area of the reference compound in the new experiment divided by the expected area of the reference compound based on the past 61 experiments (unadjusted readings). […] The reference compound used is 2-[4-amino-2-ethoxymethyl-6,7,8,9-tetrahydro-α,α-dimethyl-1H-imidazo[4,5-c]quinolin-1-yl]ethanol hydrate (U.S. Pat. No. 5,352,784; Example 91) and the expected area is the sum of the median dose values from the past 61 experiments. […]

[2] = test system: tumor necrosis factor (α) (TNF-α) induction in human peripheral blood mononuclear cells (PBMC); test: Cytokine induction in human cells (PBMC): TNF-α secreted into culture media, ORIGEN M-Series immunoassay; assay type: cell-based; conditions: for minimal effective concentration: Homo sapiens, PBMC, read-out: Minimum Effective Concentration (μM) TNF; for Maximal Response (pg/mL) TNF: maximal response in dose response curve, background-subtracted, reference-adjusted, * = below background of 40 pg/mL
From the text: as §1, §2, §3, §4, §5, §6, §7, §8
The TNF-α concentration is determined by ORIGEN M-Series Immunoassay and read on an IGEN M-8 analyzer from BioVeris Corporation, formerly known as IGEN International, Gaithersburg, Md. The immunoassay uses a human TNF-α capture and detection antibody pair (Catalog Numbers AHC3419 and AHC3712) from Biosource International, Camarillo, Calif. Results are expressed in pg/mL.
as §9
Analysis of the data has two steps. First, the greater of the mean DMSO (DMSO control wells) or the experimental background (usually 20 pg/mL for IFN-α and 40 pg/mL for TNF-α) is subtracted from each reading. If any negative values result from background subtraction, the reading is reported as “*”, and is noted as not reliably detectable. In subsequent calculations and statistics, “*”, is treated as a zero. Second, all background subtracted values are multiplied by a single adjustment ratio to decrease experiment to experiment variability. The adjustment ratio is the area of the reference compound in the new experiment divided by the expected area of the reference compound based on the past 61 experiments (unadjusted readings). […]

[3] = 18 to 24 hours incubation, tested 30-0.014 μM, lowest concentration inducing response over 20 pg/mL IFN-α, median of # experiments
[4] = lowest tested concentration inducing IFN-α over 20 pg/mL, median where more than one experiment
[5] = 18 to 24 hours incubation, tested 30-0.014 μM, lowest concentration inducing response over 40 pg/mL TNF-α, median of # experiments
[6] = lowest tested concentration inducing TNF-α over 40 pg/mL, median where more than one experiment
[7] = median where more than one experiment

| SMILES | melting point [°C] | minimal effective concentration [1, 3] [µM] | minimal effective concentration [1, 4] [µM] | minimal effective concentration [2, 5] [µM] | minimal effective concentration [2, 6] [µM] | Maximal Response (pg/mL) TNF [2, 7] |
| --- | --- | --- | --- | --- | --- | --- |
| Nc1nc2ccccc2c2c1nc(CO)n2CCCCNC(=O)C1CCCC1 [Example 145, N-{4-[4-amino-2-(hydroxymethyl)-1H-imidazo[4,5-c]quinolin-1-yl]butyl}cyclopentanecarboxamide] | 183 to 186 | – | – | – | – | – |
| CC(C)[C@H](N)C(=O)OCc1nc2c(N)nc3ccccc3c2n1CCCCNS(C)(=O)=O [Example 149, (4-Amino-1-{4-[(methylsulfonyl)amino]butyl}-1H-imidazo[4,5-c]quinolin-2-yl)methyl L-valinate] | 161 to 163 | – | – | – | – | – |
| COCCc1nc2c(N)nc3ccccc3c2n1CC(C)(C)NS(C)(=O)=O [Analog 5, N-{2-[4-Amino-2-(2-methoxyethyl)-1H-imidazo[4,5-c]quinolin-1-yl]-1,1-dimethylethyl}methanesulfonamide, reference compound] | – | 0.014 | 0.014 | 0.12 | 0.12 | – |
| CC(C)(Cn1c(CO)nc2c(N)nc3ccccc3c21)NC(=O)C1CCCCC1 [Example 5, N-[2-(4-Amino-2-hydroxymethyl-1H-imidazo[4,5-c]quinolin-1-yl)-1,1-dimethylethyl]cyclohexanecarboxamide] | 248 to 250 | – | 0.37 | – | 10 | – |
| CC(C)C(=O)NCCCCn1c(CO)nc2c(N)nc3ccccc3c21 (as salt: salt) [Example 146, N-[4-(4-amino-2-hydroxymethyl-1H-imidazo[4,5-c]quinolin-1-yl)butyl]isobutyramide] | 222 to 224 | – | – | – | – | – |
| CC(C)C(=O)NCCCn1c(CCO)nc2c(N)nc3ccccc3c21 [Example 141, N-{3-[4-Amino-2-(2-hydroxyethyl)-1H-imidazo[4,5-c]quinolin-1-yl]propyl}-2-methylpropionamide] | 196 to 198 | – | 0.04 | – | 30 | – |
| CC(C)NC(=O)NCCn1c(CO)nc2c(N)nc3ccccc3c21 [Example 144, N-{2-[4-amino-2-(hydroxymethyl)-1H-imidazo[4,5-c]quinolin-1-yl]ethyl}-N′-isopropylurea] | > 240 | – | 0.37 | – | 3.33 | – |
| CS(=O)(=O)NCCCCn1c(CCO)nc2c(N)nc3ccccc3c21 [Example 3, N-{4-[4-Amino-2-(2-hydroxyethyl)-1H-imidazo[4,5-c]quinolin-1-yl]butyl}methanesulfonamide] | 206 to 208 | – | 0.37 | – | > 30 | * (TNF below experimental background of 40 pg/mL.) |
| CC(C)(Cn1c(CO)nc2c(N)nc3ccccc3c21)CS(C)(=O)=O [Example 143, {4-Amino-1-[2,2-dimethyl-3-(methylsulfonyl)propyl]-1H-imidazo[4,5-c]quinolin-2-yl}methanol] | 230 to 232 | – | 1.11 | – | 30 | – |
| CCCc1nc2c(N)nc3ccccc3c2n1CC(C)(C)NS(C)(=O)=O [Analog 3, N-[2-(4-Amino-2-propyl-1H-imidazo[4,5-c]quinolin-1-yl)-1,1-dimethylethyl]methanesulfonamide, reference compound] | – | 0.12 | 0.12 | 0.37 | 0.37 | – |
| Cc1nc2c(N)nc3ccccc3c2n1CC(C)(C)NS(C)(=O)=O [Analog 1, N-[2-(4-Amino-2-methyl-1H-imidazo[4,5-c]quinolin-1-yl)-1,1-dimethylethyl]methanesulfonamide, reference compound] | – | 0.37 | 0.37 | 3.33 | 3.33 | – |
| CC(C)(Cn1c(CO)nc2c(N)nc3ccccc3c21)NS(C)(=O)=O [Example 7, N-[2-(4-Amino-2-hydroxymethyl-1H-imidazo[4,5-c]quinolin-1-yl)-1,1-dimethylethyl]methanesulfonamide] | 262 to 265 | 3.33 | 3.33 | 30 | 30 | – |
| Nc1nc2ccccc2c2c1nc(CO)n2CC1CCOCC1 [Example 150, [4-Amino-1-(tetrahydro-2H-pyran-4-ylmethyl)-1H-imidazo[4,5-c]quinolin-2-yl]methanol] | 239 to 241 | – | – | – | – | – |
| CS(=O)(=O)NCCCCn1c(CO)nc2c(N)nc3ccccc3c21 [Example 147, N-[4-(4-amino-2-hydroxymethyl-1H-imidazo[4,5-c]quinolin-1-yl)butyl]methanesulfonamide] | 216 to 219 | – | 0.37 | – | > 30 | * (TNF below experimental background of 40 pg/mL.) |
| CC(C)[C@H](NC(=O)OCc1ccccc1)C(=O)OCc1nc2c(N)nc3ccccc3c2n1CCCCNS(C)(=O)=O [Example 148, (4-Amino-1-{4-[(methylsulfonyl)amino]butyl}-1H-imidazo[4,5-c]quinolin-2-yl)methyl N-[(benzyloxy)carbonyl]-L-valinate] | 99 to 100 | – | – | – | – | – |
| CCc1nc2c(N)nc3ccccc3c2n1CC(C)(C)NS(C)(=O)=O [Analog 2, N-[2-(4-Amino-2-ethyl-1H-imidazo[4,5-c]quinolin-1-yl)-1,1-dimethylethyl]methanesulfonamide, reference compound] | – | 0.12 | 0.12 | 1.11 | 1.11 | – |
| CCOCc1nc2c(N)nc3ccccc3c2n1CC(C)(C)NS(C)(=O)=O [Analog 4, N-[2-(4-Amino-2-ethoxymethyl-1H-imidazo[4,5-c]quinolin-1-yl)-1,1-dimethylethyl]methanesulfonamide, reference compound] | – | 0.04 | 0.04 | 0.37 | 0.37 | – |
